Laboratory results from patent publication US12173088B2, “Anti-microbial peptides” (priority 2018, dated 2024).
≈ marks a conversion by molar mass, not a printed value. Where two headings read alike, the source gives them in different places. Peptide text beside a SMILES is read from it.

Experiments:
E. coli ATCC 25922 = type: cell-based, Escherichia coli
Experimental: (§1) The antibacterial activity of peptides was evaluated using a standard broth microdilution protocol with minor modifications as described (Mishra, et al. (2012) J. Am. Chem. Soc., 134:12426-12429). In brief, logarithmic phase bacterial cultures (i.e., optical density at 600 nm≈0.5) were diluted to OD600 0.001 and partitioned into a 96-well polystyrene microplate at 90 μL per well. After treatment with 10 μL of peptide solutions two fold diluted to various concentrations, microplates were incubated at 37° C. overnight and read on a ChroMate® 4300 Microplate Reader at 630 nm (GMI, Ramsey, MN). […] To study the influence of medium conditions on the antimicrobial activity of peptides against S. aureus USA300, up to 200 mM sodium chloride (NaCl), 2 mM of calcium chloride, 5-10% of human serum, mouse plasma, fluid, or supernatants of tissue homogenates were included into the assays.
(§2) The antibacterial activity of peptides was evaluated using a standard broth microdilution protocol with minor modifications (Mishra, et al. (2017) Acta Biomater., 49:316-328). In brief, logarithmic phase bacterial cultures (i.e., optical density at 600 nm≈0.5) were diluted to 0.001 OD and aliquoted 90 μL per well into a 96-well polystyrene microplate. Added 10 μL peptides per well with various concentrations, plates were incubated at 37° C., overnight. Post incubation the plates are read at 630 nm using a ChroMate® Microplate Reader (GMI). […] To study the influence of medium conditions on the antimicrobial activity of peptides against S. aureus USA300 at different pHs (6.8, 7.2, and 8.0), 150 mM sodium chloride (NaCl), 5-10% of human serum, mouse plasma, and peritoneal fluid were included into the assays.

[1] = tested on: human red blood cells (hRBCs); assay: Hemolytic assay; type: cell-based
Experimental: Briefly, human red blood cells (hRBCs) were washed three times with phosphate buffer saline (PBS) and diluted to a 2% solution (v/v). After peptide treatment, incubation at 37° C. for one hour, and centrifugation at 5000 rpm for 10 minutes, aliquots of the supernatant were carefully transferred to a fresh 96-well microplate. The amount of hemoglobin released was measured at 545 nm. The percent lysis was calculated by assuming 100% release when human blood cells were treated with 2% Triton™ X-100, and 0% release when incubated with PBS buffer. The peptide concentration that caused 50% lysis of hRBCs is defined as HL50. The cell selectivity index (CSI) was calculated as the ratio between HL50 and MIC of the corresponding peptide against a select pathogenic species.
Hemolytic assays of peptides were performed as described (Mishra, et al. (2017) Acta Biomater., 49:316-328). Briefly, human red blood cells (hRBCs) obtained from UNMC Blood Bank. The blood washed 3× with isotonic saline (0.9% NaCl) and diluted to 2% blood cells (v/v). Peptide horine and verine at various concentrations were added into the 2% blood cells and incubated at 37° C. for 1 hour. Post incubation the plates were spun at 2000 rpm for 10 minutes, aliquots of the supernatant were carefully transferred to a fresh 96-well microplate. The amount of cells lysed is proportional to the hemoglobin released and measured at 545 nm using a ChroMate® microplate reader. The percent lysis was calculated by assuming 100% release when human blood cells were treated with 1% Triton™ X-100, and 0% release when incubated with PBS. The peptide concentration that caused 50% lysis of hRBCs is defined as HL50.

S. aureus USA300 = assay: microbe, parasite or virus in culture; type: cell-based, Staphylococcus aureus
Source text: The bacterial strains used include the Gram-positive strains Staphylococcus aureus USA300 LAC, S. epidermidis 1457, and Bacillus subtilis 168, as well as the Gram-negative isolates Escherichia coli K12 and Acinetobacter baumannii B2367-12. Additional, drug resistance strains include Gram-positive Enterococcus faecium V286-17 (VRE) and S. aureus M838-17 (MRSA) and Gram-negative E. coli E423-17, E. coli E416-17 (ampC), and P. aeruginosa E411-17. Bacteria were cultivated in tryptic soy broth (TSB) (BD Bioscience, MD).
as §1
(§3) The bacterial strains used include the Gram-positive bacteria methicillin-resistant Staphylococcus aureus USA300, Enterococcus faecium V286-17 (VRE), S. aureus M838-17 (MRSA) and Gram-negative bacteria E. coli E423-17, E416-7 (ampC), P. aeruginosa E411-17, PA01, K. pneumoniae E406-17, ATCC13883, and A. baumannii B26-16. Bacteria were cultivated in tryptic soy broth (TSB) from BD Bioscience.
as §2

P. aeruginosa PAO1 = type: cell-based, Pseudomonas aeruginosa
Experimental: as §1, §3, §2

K. pneumoniae ATCC 13883 = type: cell-based, Klebsiella pneumoniae; conditions: ATCC 13883
Experimental: as §1, §3, §2

Row | Compound | MIC E. coli ATCC 25922 (E. coli ATCC 25922; ATCC 25922) [µM] | HL50 [1] [µM] | MIC S. aureus USA 300 (S. aureus USA300; USA300) [µM] | MIC P. aeruginosa PAO1 (P. aeruginosa PAO1; PAO1) [µM] | MIC K. pneumoniae ATCC 13883 (K. pneumoniae ATCC 13883) [µM] | MIC K. pneumonia ATCC 13883 (K. pneumoniae ATCC 13883) [µM] | other results
1 | CC(C)C[C@H](NC(=O)[C@H](CC(C)C)NC(=O)[C@H](CCCCN)NC(=O)CNC(=O)[C@H](C)NC(=O)[C@H](C)NC(=O)[C@H](CCCCN)NC(=O)[C@H](CC(C)C)NC(=O)[C@H](C)NC(=O)[C@H](CO)NC(=O)[C@H](CC(C)C)NC(=O)[C@H](CC(C)C)NC(=O)CN)C(N)=O [DFT521, GLLSALKAAGKLL] (H-GLLSALKAAGKLL-NH2; N-terminus assumed) | 12.5 (≈ 15.7 µg/mL) | >50 | 12.5 (≈ 15.7 µg/mL) | >25 | – | – | MIC against S. aureus (S. aureus USA300; USA300): 12.5 to 25 µM
2 | CC(C)C[C@H](NC(=O)[C@H](CC(C)C)NC(=O)[C@H](CCCCN)NC(=O)CNC(=O)[C@H](C)NC(=O)[C@H](C)NC(=O)[C@H](CCCCN)NC(=O)[C@H](C)NC(=O)[C@H](C)NC(=O)[C@H](CO)NC(=O)[C@H](CC(C)C)NC(=O)[C@H](CC(C)C)NC(=O)CN)C(N)=O [DFT522, GLLSAAKAAGKLL] (H-GLLSAAKAAGKLL-NH2; N-terminus assumed) | >25 | 50 | >25 | >25 | – | – | Antimicrobial activity (S. aureus USA300; at 25 μM): inactive
3 | CC(C)C[C@H](NC(=O)[C@H](CC(C)C)NC(=O)[C@H](CCCCN)NC(=O)CNC(=O)[C@H](CC(C)C)NC(=O)[C@H](CC(C)C)NC(=O)[C@H](CO)NC(=O)[C@H](CC(C)C)NC(=O)[C@H](CO)NC(=O)[C@H](CC(C)C)NC(=O)[C@H](CC(C)C)NC(=O)CN)C(N)=O [DFT523, GLLSL-SLLGKLL] (H-GLLSLSLLGKLL-NH2; N-terminus and C-terminus assumed) | – | – | – | – | – | – | MIC against E. coli (E. coli ATCC 25922): 12.5 to 25 µM; MIC E. coli ATCC 25922 (E. coli ATCC 25922; Table 3, quantified by UV): 25 µM (≈ 30.6 µg/mL); HL50 ([1]; Table 3, hRBCs 2% v/v): >50 µM; MIC against S. aureus (S. aureus USA300; Example 1): 12.5 to 25 µM; MIC S. aureus USA 300 (S. aureus USA300; Table 3, quantified by UV): 12.5 µM (≈ 15.3 µg/mL); MIC P. aeruginosa PAO1 (P. aeruginosa PAO1; Table 3, quantified by UV): >25 µM
4 | CC[C@H](C)[C@H](NC(=O)[C@H](CCCCN)NC(=O)[C@H](CCCNC(=N)N)NC(=O)[C@H](CC(C)C)NC(=O)[C@H](Cc1c[nH]c2ccccc12)NC(=O)[C@@H](N)Cc1c[nH]c2ccccc12)C(=O)N[C@@H](Cc1c[nH]c2ccccc12)C(=O)N[C@@H](Cc1c[nH]c2ccccc12)C(=O)O [WW292, WWLRKIWW] (H-WWLRKIWW-OH; N-terminus and C-terminus assumed) | 25 (≈ 31.8 µg/mL) | – | 6.2 (≈ 7.9 µg/mL) | – | >50 | – | –
5 | CC[C@H](C)[C@H](NC(=O)[C@H](CCCCN)NC(=O)[C@H](CCCNC(=N)N)NC(=O)[C@H](CC(C)C)NC(=O)[C@@H](N)Cc1c[nH]c2ccccc12)C(=O)N[C@@H](Cc1c[nH]c2ccccc12)C(=O)N[C@@H](Cc1c[nH]c2ccccc12)C(=O)N[C@@H](Cc1c[nH]c2ccccc12)C(=O)O [WW293, WLRKIWWW] (H-WLRKIWWW-OH; N-terminus and C-terminus assumed) | 12.5 to 25 | – | 3.1 to 6.2 | – | 25 (≈ 31.8 µg/mL) | – | –
6 | CC[C@H](C)[C@H](NC(=O)[C@H](CCCCN)NC(=O)[C@H](CCCNC(=N)N)NC(=O)[C@@H](N)CC(C)C)C(=O)N[C@@H](Cc1c[nH]c2ccccc12)C(=O)N[C@@H](Cc1c[nH]c2ccccc12)C(=O)N[C@@H](Cc1c[nH]c2ccccc12)C(=O)N[C@@H](Cc1c[nH]c2ccccc12)C(=O)O [WW294, LRKIWWWW] (H-LRKIWWWW-OH; N-terminus and C-terminus assumed) | 12.5 (≈ 15.9 µg/mL) | – | 3.1 to 6.2 | – | 6.2 to 12.5 | – | –
7 | CC[C@H](C)[C@H](NC(=O)[C@@H](N)CCCCN)C(=O)N[C@@H](Cc1c[nH]c2ccccc12)C(=O)N[C@@H](Cc1c[nH]c2ccccc12)C(=O)N[C@@H](Cc1c[nH]c2ccccc12)C(=O)N[C@@H](Cc1c[nH]c2ccccc12)C(=O)N[C@@H](CC(C)C)C(=O)N[C@@H](CCCNC(=N)N)C(=O)O [WW296, KIWWWWLR] (H-KIWWWWLR-OH; N-terminus and C-terminus assumed) | 6.2 to 12.5 | – | 3.1 (≈ 3.95 µg/mL) | – | 12.5 (≈ 15.9 µg/mL) | – | –
8 | CC[C@H](C)[C@H](NC(=O)[C@H](CCCCN)NC(=O)[C@H](CCCNC(=N)N)NC(=O)[C@H](CC(C)C)NC(=O)[C@H](Cc1c[nH]c2ccccc12)NC(=O)[C@H](Cc1c[nH]c2ccccc12)NC(=O)[C@H](Cc1c[nH]c2ccccc12)NC(=O)[C@@H](N)Cc1c[nH]c2ccccc12)C(=O)O [WW298, WWWWLRKI] (H-WWWWLRKI-OH; N-terminus and C-terminus assumed) | 12.5 (≈ 15.9 µg/mL) | – | 1.5 to 3.1 | – | 6.2 to 12.5 | – | –
9 | CC[C@H](C)[C@H](NC(=O)[C@H](CCCNC(=N)N)NC(=O)[C@H](CCCNC(=N)N)NC(=O)[C@H](CC(C)C)NC(=O)[C@H](Cc1c[nH]c2ccccc12)NC(=O)[C@H](Cc1c[nH]c2ccccc12)NC(=O)[C@@H](N)Cc1c[nH]c2ccccc12)C(=O)N[C@@H](Cc1c[nH]c2ccccc12)C(N)=O [WW299, WWWLRRIW] (H-WWWLRRIW-NH2; N-terminus and C-terminus assumed) | – | 35 | – | >50 | – | 25 (≈ 32.5 µg/mL) | –
10 | CC[C@H](C)[C@H](NC(=O)[C@H](CCCNC(=N)N)NC(=O)[C@H](CCCNC(=N)N)NC(=O)[C@H](CC(C)C)NC(=O)[C@H](Cc1c[nH]c2ccccc12)NC(=O)[C@H](Cc1c[nH]c2ccccc12)NC(=O)[C@@H](N)CCCNC(=N)N)C(=O)N[C@@H](Cc1c[nH]c2ccccc12)C(N)=O [WW300, RWWLRRIW] (H-RWWLRRIW-NH2; N-terminus and C-terminus assumed) | – | >200 | – | 12.5 (≈ 15.9 µg/mL) | – | >50 | –
11 | CC[C@H](C)[C@H](NC(=O)[C@H](CCCNC(=N)N)NC(=O)[C@H](CCCNC(=N)N)NC(=O)[C@H](CC(C)C)NC(=O)[C@H](Cc1c[nH]c2ccccc12)NC(=O)[C@H](CCCNC(=N)N)NC(=O)[C@@H](N)Cc1c[nH]c2ccccc12)C(=O)N[C@@H](Cc1c[nH]c2ccccc12)C(N)=O [WW301, WRWLRRIW] (H-WRWLRRIW-NH2; N-terminus and C-terminus assumed) | – | 100 | – | 6.2 (≈ 7.88 µg/mL) | – | 25 (≈ 31.8 µg/mL) | –
12 | CC[C@H](C)[C@H](NC(=O)[C@H](CCCNC(=N)N)NC(=O)[C@H](CCCNC(=N)N)NC(=O)[C@H](CC(C)C)NC(=O)[C@H](CCCNC(=N)N)NC(=O)[C@H](Cc1c[nH]c2ccccc12)NC(=O)[C@@H](N)Cc1c[nH]c2ccccc12)C(=O)N[C@@H](Cc1c[nH]c2ccccc12)C(N)=O [WW302, WWRLRRIW] (H-WWRLRRIW-NH2; N-terminus and C-terminus assumed) | – | >200 | – | 12.5 (≈ 15.9 µg/mL) | – | >25 | –
